Laboratory results published in patent US20220056043A1, “NITROGEN-CONTAINING FUSED CYCLIC COMPOUND, PREPARATION METHOD THEREFOR AND USE THEREOF” (SICHUAN KELUN-BIOTECH BIOPHARMACEUTICAL CO., LTD., priority 2019, published 2022).

Tests used:
hNLRP3 inflammasome = target: T1, hNLRP3 inflammasome (Homo sapiens, UniProt Q96P20); assay: Agonistic effect on the expression of IL-1β in THP-1 cells after PMA-induced differentiation (HTRF); format: cell-based; settings: IL-1β level, PMA-differentiated THP-1 cells, 6 hours
T1 construct: endogenous in cells; host or cells: THP-1 cells, PMA-differentiated
How it was run: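 THP-1 cells differentiated with 1 μM PMA for 24 h, then replated at 1×10^5 cells/well in RPMI 1640 with 2% FBS. Compounds added for 6 h at 37 °C, 5% CO2. Supernatant IL-1β measured by HTRF; EC50 from four-parameter variable-slope fit.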

hTLR8 = target: T2, hTLR8 (Homo sapiens, UniProt Q9NR97); assay: Agonistic effect on hTLR8, HEK-Blue hTLR8 cells, alkaline phosphatase secretion; format: cell-based; settings: 16 hours
T2 construct: host or cells: HEK-Blue hTLR8 cells
T2 sequence (Q9NR97 27-1041): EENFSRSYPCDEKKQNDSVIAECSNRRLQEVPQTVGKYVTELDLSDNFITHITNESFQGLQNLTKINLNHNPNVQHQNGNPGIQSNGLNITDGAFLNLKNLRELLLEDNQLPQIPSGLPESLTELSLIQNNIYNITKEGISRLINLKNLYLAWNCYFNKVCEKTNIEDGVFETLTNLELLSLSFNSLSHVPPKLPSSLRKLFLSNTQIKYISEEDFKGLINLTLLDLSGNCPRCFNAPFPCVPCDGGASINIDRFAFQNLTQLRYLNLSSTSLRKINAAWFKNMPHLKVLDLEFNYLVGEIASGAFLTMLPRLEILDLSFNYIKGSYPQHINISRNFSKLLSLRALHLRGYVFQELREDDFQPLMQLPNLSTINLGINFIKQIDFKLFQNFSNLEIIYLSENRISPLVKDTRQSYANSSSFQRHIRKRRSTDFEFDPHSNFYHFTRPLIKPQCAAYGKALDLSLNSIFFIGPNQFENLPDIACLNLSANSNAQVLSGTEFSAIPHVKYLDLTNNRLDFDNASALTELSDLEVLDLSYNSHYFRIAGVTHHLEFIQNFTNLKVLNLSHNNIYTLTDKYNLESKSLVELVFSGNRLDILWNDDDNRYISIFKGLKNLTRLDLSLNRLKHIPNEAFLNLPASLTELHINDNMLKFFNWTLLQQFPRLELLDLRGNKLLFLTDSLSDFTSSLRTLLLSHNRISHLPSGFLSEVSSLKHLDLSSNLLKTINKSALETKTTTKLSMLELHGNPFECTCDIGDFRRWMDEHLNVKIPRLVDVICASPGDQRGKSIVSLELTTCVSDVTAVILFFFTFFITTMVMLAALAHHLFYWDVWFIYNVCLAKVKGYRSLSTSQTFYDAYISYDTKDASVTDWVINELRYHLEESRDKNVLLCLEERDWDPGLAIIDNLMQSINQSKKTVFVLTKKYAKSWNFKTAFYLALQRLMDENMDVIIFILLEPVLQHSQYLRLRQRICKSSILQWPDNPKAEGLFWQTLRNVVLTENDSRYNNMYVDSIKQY
How it was run: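 HEK-Blue hTLR8 reporter cells were treated with compound (diluted from 10 mM DMSO stock) for 16 h at 37 °C in DMEM/10% FBS. Secreted alkaline phosphatase in supernatant was detected with QUANTI-Blue after 3 h at 37 °C, read at OD620. EC50 came from a four-parameter variable-slope fit.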

T1 sequence (Q96P20 whole entry): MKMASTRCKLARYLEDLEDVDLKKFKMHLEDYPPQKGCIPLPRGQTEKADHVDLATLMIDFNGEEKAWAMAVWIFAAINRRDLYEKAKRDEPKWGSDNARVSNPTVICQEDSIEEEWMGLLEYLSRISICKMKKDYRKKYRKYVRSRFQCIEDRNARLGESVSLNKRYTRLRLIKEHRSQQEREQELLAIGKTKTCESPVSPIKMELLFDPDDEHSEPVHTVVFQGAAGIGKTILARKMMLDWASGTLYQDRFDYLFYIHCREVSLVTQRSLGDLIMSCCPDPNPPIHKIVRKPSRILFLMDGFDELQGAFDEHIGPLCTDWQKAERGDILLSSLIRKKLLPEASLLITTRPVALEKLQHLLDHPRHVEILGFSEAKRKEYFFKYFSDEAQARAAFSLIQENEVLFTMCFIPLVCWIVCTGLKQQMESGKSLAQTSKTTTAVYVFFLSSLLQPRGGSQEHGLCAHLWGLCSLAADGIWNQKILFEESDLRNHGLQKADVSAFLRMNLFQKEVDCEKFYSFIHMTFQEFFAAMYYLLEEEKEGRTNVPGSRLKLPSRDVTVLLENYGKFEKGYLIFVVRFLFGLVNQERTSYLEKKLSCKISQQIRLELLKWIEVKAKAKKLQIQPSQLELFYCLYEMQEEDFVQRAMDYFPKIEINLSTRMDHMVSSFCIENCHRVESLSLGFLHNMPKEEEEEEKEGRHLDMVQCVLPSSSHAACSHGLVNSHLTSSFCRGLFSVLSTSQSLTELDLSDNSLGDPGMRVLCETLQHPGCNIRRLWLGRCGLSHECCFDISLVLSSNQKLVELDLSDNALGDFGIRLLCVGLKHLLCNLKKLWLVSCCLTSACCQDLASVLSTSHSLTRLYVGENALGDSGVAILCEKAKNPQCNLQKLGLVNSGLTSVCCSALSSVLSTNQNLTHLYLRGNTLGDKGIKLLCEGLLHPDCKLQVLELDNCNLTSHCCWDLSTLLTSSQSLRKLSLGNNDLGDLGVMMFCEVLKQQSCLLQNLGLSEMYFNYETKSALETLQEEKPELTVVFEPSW

SMILES | EC50 (hNLRP3 inflammasome) [µM] | EC50 (hTLR8) [nM]
CC(C)(O)CNc1cc(N)nc2cc(-c3ccn[nH]3)sc12 [Compound 28, (1-(5-amino-2-(1H-pyrazol-5-yl)thieno[3,2-b]pyridin-7-yl)amino)-2-methyl-2-propanol] | 0.54 | > 100000
C[C@@H](O)CNc1cc(N)nc2cc(-c3ccn[nH]3)sc12 [Compound 29] | 0.16 | > 100000
Nc1cc(N[C@@H]2CC[C@@H](O)C2)c2sc(-c3ccn[nH]3)cc2n1 [Compound 30, (1R,3R)-3-((5-amino-2-(1H-pyrazol-5-yl)thieno[3,2-b]pyridin-7-yl)amino)cyclopentanol] | 0.03 | > 100000
Nc1cc(NC(CCO)c2ccccc2)c2sc(-c3ccn[nH]3)cc2n1 (stereo not drawn) [Compound 123, 3-((5-amino-2-(1H-pyrazol-5-yl)thieno[3,2-b]pyridin-7-yl)amino)-3-phenyl-1-propanol] | 0.1 | > 100000
Nc1cc(NCC2CCC2)c2sc(-c3ccn[nH]3)cc2n1 [Compound 126, N^7-(cyclobutylmethyl)-2-(1H-pyrazol-5-yl)thieno[3,2-b]pyridine-5,7-diamine] | 0.35 | > 100000
CN(CCCO)c1cc(N)nc2cc(-c3ccn[nH]3)sc12 [Compound 127, 3-((5-amino-2-(1H-pyrazol-5-yl)thieno[3,2-b]pyridin-7-yl)(methyl)amino)-1-propanol] | 0.11 | > 100000
C[C@H]1CC[C@H](Nc2cc(N)nc3cc(-c4ccn[nH]4)sc23)CC1 [Compound 128, N^7-((1R,4R)-4-methylcyclohexyl)-2-(1H-pyrazol-5-yl)thieno[3,2-b]pyridine-5,7-diamine] | 0.11 | > 100000
C[C@]1(O)C[C@@H](Nc2cc(N)nc3cc(-c4ccn[nH]4)sc23)C1 [Compound 129, (1s,3s)-3-((5-amino-2-(1H-pyrazol-5-yl)thieno[3,2-b]pyridin-7-yl)amino)-1-methylcyclobutanol] | 0.03 | > 100000
C[C@H](Nc1cc(N)nc2cc(-c3ccn[nH]3)sc12)c1cccc(C(F)(F)F)c1 [Compound 131, (S)-2-(1H-pyrazol-5-yl)-N^7-(1-(3-(trifluoromethyl)phenyl)ethyl)thieno[3,2-b]pyridine-5,7-diamine] | 0.06 | > 100000
CC[C@@H](CO)Nc1cc(N)nc2cc(-c3ccn[nH]3)sc12 [Compound 132, (S)-2-((5-amino-2-(1H-pyrazol-5-yl)thieno[3,2-b]pyridin-7-yl)amino)-1-butanol] | 3.48 | > 100000
COC[C@@H](C)Nc1cc(N)nc2cc(-c3ccn[nH]3)sc12 [Compound 133, (R)—N^7-(1-methoxyprop-2-yl)-2-(1H-pyrazol-5-yl)thieno[3,2-b]pyridine-5,7-diamine] | 0.58 | > 100000
Cc1cccnc1CNc1cc(N)nc2cc(-c3ccn[nH]3)sc12 [Compound 134, N^7-((3-methylpyridin-2-yl)methyl)-2-(1H-pyrazol-5-yl)thieno[3,2-b]pyridine-5,7-diamine] | 0.03 | > 100000
Nc1cc(NCCN2CCCC2=O)c2sc(-c3ccn[nH]3)cc2n1 [Compound 135, 1-(2-((5-amino-2-(1H-pyrazol-5-yl)thieno[3,2-b]pyridin-7-yl)amino)ethyl)pyrrolidin-2-one] | 0.32 | > 100000
Nc1cc(NCC(CO)CO)c2sc(-c3ccn[nH]3)cc2n1 [Compound 136] | 0.05 | > 100000
CNC(=O)CNc1cc(N)nc2cc(-c3ccn[nH]3)sc12 [Compound 137, 2-((5-amino-2-(1H-pyrazol-5-yl)thieno[3,2-b]pyridin-7-yl)amino)-N-methylacetamide] | 0.95 | > 100000
Nc1cc(NCC(=O)NC2CC2)c2sc(-c3ccn[nH]3)cc2n1 [Compound 138, 2-((5-amino-2-(1H-pyrazol-5-yl)thieno[3,2-b]pyridin-7-yl)amino)-N-cyclopropylacetamide] | 0.2 | > 100000
CN(CCO)c1cc(N)nc2cc(-c3ccn[nH]3)sc12 [Compound 139, 2-((5-amino-2-(1H-pyrazol-5-yl)thieno[3,2-b]pyridin-7-yl)(methyl)amino)ethanol] | 0.07 | > 100000
CCN(CCNc1cc(N)nc2cc(-c3ccn[nH]3)sc12)C(=O)Cc1cccc(C)c1 [Compound 140, N-(2-((5-amino-2-(1H-pyrazol-5-yl)thieno[3,2-b]pyridin-7-yl)amino)ethyl)-N-ethyl-2-(m-tolyl)acetamide] | 0.5 | > 100000
CC(C)CNc1cc(N)nc2cc(-c3ccn[nH]3)sc12 [Compound 141, N^7-isobutyl-2-(1H-pyrazol-5-yl)thieno[3,2-b]pyridin-5,7-diamine] | 0.03 | > 100000
Nc1cc(N[C@H]2[C@@H]3CNC[C@@H]32)c2sc(-c3ccn[nH]3)cc2n1 [Compound 142, N^7-((1R,5S,6S)-3-azabicyclo[3.1.0]hex-6-yl)-2-(1H-pyrazol-5-yl)thieno[3,2-b]pyridin-5,7-diamine] | 0.14 | > 100000
Nc1cc(NC2CCC(F)(F)CC2)c2sc(-c3ccn[nH]3)cc2n1 [Compound 143, N^7-(4,4-difluorocyclohexyl)-2-(1H-pyrazol-5-yl)thieno[3,2-b]pyridin-5,7-diamine] | 0.08 | > 100000
CC(C)C[C@H](CO)Nc1cc(N)nc2cc(-c3ccn[nH]3)sc12 [Compound 144, (R)-2-((5-amino-2-(1H-pyrazol-5-yl)thieno[3,2-b]pyridin-7-yl)amino)-4-methyl-1-pentanol] | 0.38 | > 100000
CCC(=O)N(CC)CCNc1cc(N)nc2cc(-c3ccn[nH]3)sc12 [Compound 145, N-(2-((5-amino-2-(1H-pyrazol-5-yl)thieno[3,2-b]pyridin-7-yl)amino)ethyl)-N-ethylpropionamide] | 0.31 | > 100000
CCN(CCNc1cc(N)nc2cc(-c3ccn[nH]3)sc12)C(=O)C1CC1 [Compound 146, N-(2-((5-amino-2-(1H-pyrazol-5-yl)thieno[3,2-b]pyridin-7-yl)amino)ethyl)-N-ethylcyclopropyl formamide] | 0.29 | > 100000
Nc1cc(N[C@H]2CC[C@H](O)CC2)c2sc(-c3ccn[nH]3)cc2n1 [Compound 147, (1R,4R)-4-((5-amino-2-(1H-pyrazol-5-yl)thieno[3,2-b]pyridin-7-yl)amino)cyclohexanol] | 0.03 | > 100000
C[C@@H]1CN(c2cc(N)nc3cc(-c4ccn[nH]4)sc23)C[C@@H](C)O1 [Compound 148, 7-((2R,6R)-2,6-dimethylmorpholino)-2-(1H-pyrazol-5-yl)thieno[3,2-b]pyridine-5-amine] | 0.008 | > 100000
Cc1noc(C)c1CNc1cc(N)nc2cc(-c3ccn[nH]3)sc12 [Compound 149, N^7-((3,5-dimethylisoxazol-4-yl)methyl)-2-(1H-pyrazol-5-yl)thieno[3,2-b]pyridine-5,7-diamine] | 0.04 | > 100000
Nc1cc(NCCCN2CCCC2=O)c2sc(-c3ccn[nH]3)cc2n1 [Compound 150] | 0.16 | > 100000
Cc1c(-c2cc[nH]n2)sc2c(NCC(C)(C)CO)cc(N)nc12 [Compound 151] | 3.66 | > 100000
COCCNc1cc(N)nc2c(C)c(-c3cc[nH]n3)sc12 [Compound 152] | 2.75 | > 100000
